Reference: US11613522B2, “Herbicidally active 3-phenylisoxazoline-5-carboxamides of tetrahydro- and dihydrofurancarboxamides” (BAYER AKTIENGESELLSCHAFT, priority 2017, dated 2023)

What was measured:
Assay type in all cases: in vivo
Polygonum convolvulus [1] = assay: Pre-emergence herbicidal activity against POLCO; conditions: dosage 80 g/ha, scored visually after about 3 weeks vs untreated controls
Outline: (§1)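 Pre-emergence pot test: seed → soil cover → spray of WP/EC formulation (aq., 0.5% additive, 600 l/ha) on soil surface → greenhouse ~3 wk → visual % activity vs untreated (100% = dead, 0% = as control).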

Viola tricolor [2] = assay: Post-emergence herbicidal activity against VIOTR; conditions: dosage 320 g/ha, rated visually after about 3 weeks
Outline: (§2)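 Seeds sown in sandy loam, greenhouse-grown; at one-leaf stage (2–3 wk) sprayed with WP/EC in water + 0.5% additive, 600 l/ha. ~3 wk greenhouse hold, then visual % activity vs untreated (100% = plants dead).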

Stellaria media [3] = assay: Pre-emergence herbicidal activity against STEME; conditions: dosage 80 g/ha, scored visually after about 3 weeks vs untreated controls
Outline: as §1

Echinochloa crus-galli [4] = assay: Post-emergence herbicidal activity against ECHCG; conditions: dosage 320 g/ha, rated visually after about 3 weeks
Outline: as §2

Lolium rigidum [5] = assay: Post-emergence herbicidal activity against LOLRI; conditions: dosage 320 g/ha, rated visually after about 3 weeks
Outline: as §2

Alopecurus myosuroides [6] = assay: Pre-emergence herbicidal activity against ALOMY; conditions: dosage 80 g/ha, scored visually after about 3 weeks vs untreated controls
Outline: as §1

Echinochloa crus-galli [7] = assay: Pre-emergence herbicidal activity against ECHCG; conditions: dosage 80 g/ha, scored visually after about 3 weeks vs untreated controls
Description: (§3) 1. Pre-emergence herbicidal action against harmful plants and crop plant compatibility Seeds of monocotyledonous and dicotyledonous weed plants and crop plants are placed in plastic or wood fiber pots and covered with soil. The compounds of the invention, formulated in the form of wettable powders (WP) or as emulsion concentrates (EC), are then applied onto the surface of the covering soil as aqueous suspension or emulsion with addition of 0.5% additive at a water application rate of 600 l/ha (converted). After the treatment, the pots are placed in a greenhouse and kept under good growth conditions for the trial plants. After about 3 weeks, the effect of the preparations is scored visually in comparison with untreated controls as percentages. For example, 100% activity=the plants have died, 0% activity=like control plants. [table]

Stellaria media [8] = assay: Post-emergence herbicidal activity against STEME; conditions: dosage 320 g/ha, rated visually after about 3 weeks
Outline: as §2

Lolium rigidum [9] = assay: Pre-emergence herbicidal activity against LOLRI; conditions: dosage 80 g/ha, scored visually after about 3 weeks vs untreated controls
Outline: as §1

Veronica persica [10] = assay: Pre-emergence herbicidal activity against VERPE; conditions: dosage 80 g/ha
Outline: as §1

Avena fatua [11] = assay: Pre-emergence herbicidal activity against AVEFA; conditions: dosage 80 g/ha, scored visually after about 3 weeks vs untreated controls
Outline: as §1

Setaria viridis [12] = assay: Post-emergence herbicidal activity against SETVI; conditions: dosage 320 g/ha, rated visually after about 3 weeks
Outline: as §2

Veronica persica [13] = assay: Post-emergence herbicidal activity against VERPE; conditions: dosage 320 g/ha, rated visually after about 3 weeks
Outline: as §2

Amaranthus retroflexus [14] = assay: Pre-emergence herbicidal activity against AMARE; conditions: dosage 80 g/ha, scored visually after about 3 weeks vs untreated controls
Outline: as §1

Setaria viridis [15] = assay: Pre-emergence herbicidal activity against SETVI; conditions: dosage 80 g/ha, scored visually after about 3 weeks vs untreated controls
Outline: as §1

Amaranthus retroflexus [16] = assay: Post-emergence herbicidal activity against AMARE; conditions: dosage 320 g/ha, rated visually after about 3 weeks
Outline: as §2

Avena fatua [17] = assay: Post-emergence herbicidal activity against AVEFA; conditions: dosage 320 g/ha, rated visually after about 3 weeks
Outline: as §2

Pharbitis purpurea [18] = assay: Pre-emergence herbicidal activity against PHBPU; conditions: dosage 80 g/ha, scored visually after about 3 weeks vs untreated controls
Description: as §3

Viola tricolor [19] = assay: Pre-emergence herbicidal activity against VIOTR; conditions: dosage 80 g/ha, scored visually after about 3 weeks vs untreated controls
Outline: as §1

Abutilon theophrasti = assay: Post-emergence herbicidal activity against ABUTH; conditions: dosage 320 g/ha, rated visually after about 3 weeks
Outline: as §2

Polygonum convolvulus [20] = assay: Post-emergence herbicidal activity against POLCO; conditions: dosage 320 g/ha, rated visually after about 3 weeks
Outline: as §2

Hordeum murinum [21] = assay: Post-emergence herbicidal activity against HORMU; conditions: dosage 320 g/ha, rated visually after about 3 weeks
Outline: as §2

Alopecurus myosuroides [22] = assay: Post-emergence herbicidal activity against ALOMY; conditions: dosage 320 g/ha, rated visually after about 3 weeks
Outline: as §2

Hordeum murinum [23] = assay: Pre-emergence herbicidal activity against HORMU; conditions: dosage 80 g/ha
Outline: as §1

Pharbitis purpurea [24] = assay: Post-emergence herbicidal activity against PHBPU; conditions: dosage 320 g/ha, rated visually after about 3 weeks
Outline: as §2

Row | Structure (SMILES) | Pre-emergence herbicidal activity in % against POLCO (Polygonum convolvulus [1]) [%] | Pre-emergence herbicidal activity in % against STEME (Stellaria media [3]) [%] | Post-emergence herbicidal activity in % against LOLRI (Lolium rigidum [5]) [%] | Pre-emergence herbicidal activity in % against ALOMY (Alopecurus myosuroides [6]) [%] | Pre-emergence herbicidal activity in % against ECHCG (Echinochloa crus-galli [7]) [%] | Post-emergence herbicidal activity in % against STEME (Stellaria media [8]) [%] | Pre-emergence herbicidal activity in % against LOLRI (Lolium rigidum [9]) [%] | Pre-emergence herbicidal activity in % against AVEVA (AVEFA) (Avena fatua [11]) [%] | Post-emergence herbicidal activity in % against SETVI (Setaria viridis [12]) [%] | Post-emergence herbicidal activity in % against VERPE (Veronica persica [13]) [%] | Pre-emergence herbicidal activity in % against AMARE (Amaranthus retroflexus [14]) [%] | Pre-emergence herbicidal activity in % against SETVI (Setaria viridis [15]) [%] | Post-emergence herbicidal activity in % against AMARE (Amaranthus retroflexus [16]) [%] | Post-emergence herbicidal activity in % against AVEFA (Avena fatua [17]) [%] | Pre-emergence herbicidal activity in % against PHBPU (Pharbitis purpurea [18]) [%] | Pre-emergence herbicidal activity in % against VIOTR (Viola tricolor [19]) [%] | Post-emergence herbicidal activity in % against ABUTH (Abutilon theophrasti) [%] | Post-emergence herbicidal activity in % against POLCO (Polygonum convolvulus [20]) [%] | Post-emergence herbicidal activity in % against HORMU (Hordeum murinum [21]) [%] | Post-emergence herbicidal activity in % against ALOMY (Alopecurus myosuroides [22]) [%] | also measured
1 | C[C@]1(C(=O)N[C@@H]2CO[C@H](C(=O)NS(C)(=O)=O)C2)CC(c2cc(F)cc(F)c2)=NO1 [Example I-23] | 100 | 100 | 100 | 100 | 100 | 90 | 100 | 100 | 80 | 80 | 100 | 100 | 80 | 100 | 90 | 90 | 80 | 90 | 100 | 90 | Post-emergence herbicidal activity in % against VIOTR (Viola tricolor [2]): 80%; Post-emergence herbicidal activity in % against ECHCG (Echinochloa crus-galli [4]): 90%; Pre-emergence herbicidal activity in % against VERPE (Veronica persica [10]): 90%; Pre-emergence herbicidal activity in % against HORMU (Hordeum murinum [23]): 90%; Post-emergence herbicidal activity in % against PHBPU (Pharbitis purpurea [24]): 80%
2 | CN(C)C(=O)[C@@H]1C[C@H](NC(=O)[C@@]2(C)CC(c3cc(F)cc(F)c3)=NO2)CO1 [Example I-25] | 100 | 100 | 100 | 100 | 80 | 90 | 100 | 90 | 80 | 80 | 100 | 100 | 80 | 90 | 90 | 100 | 80 | 80 | 90 | 100 | Pre-emergence herbicidal activity in % against VERPE (Veronica persica [10]): 90%; Post-emergence herbicidal activity in % against PHBPU (Pharbitis purpurea [24]): 90%
3 | C=C[C@]1(C(=O)N[C@@H]2CO[C@H](C(=O)NCCC(=O)OC)C2)CC(c2cc(F)cc(F)c2)=NO1 [Example I-20] | 100 | 100 | 100 | 100 | 100 | 80 | 100 | 100 | 90 | 80 | 100 | 100 | 90 | 100 | 80 | 100 | 80 | 80 | 100 | 100 | Post-emergence herbicidal activity in % against VIOTR (Viola tricolor [2]): 80%; Post-emergence herbicidal activity in % against ECHCG (Echinochloa crus-galli [4]): 100%; Pre-emergence herbicidal activity in % against HORMU (Hordeum murinum [23]): 100%; Post-emergence herbicidal activity in % against PHBPU (Pharbitis purpurea [24]): 90%
